Laboratory results from patent US20230053473A1, “ENHANCING EXPRESSION OF LINE-1 ENCODED ORF2P FOR CANCER THERAPEUTICS” (The Johns Hopkins University, priority 2019, published 2023).

Experiments:
RPA2 = assay: Western blot of chromatin-bound RPA2; format: cell-based; details: RPE, chromatin-bound protein fractions; 1 μM
Description: FIGS. 6A-6G. LINE-1 activity induces replication stress. 6A) Median count of sgRNAs targeting replication stress signaling genes ATRIP and the 9-1-1 complex (HUS1 and RAD1) during the screen. Error bars indicate 95% confidence intervals. 6B) Clonogenic assay of LINE-1(+) RPE cells (induced with 1 μg/ml doxycycline) with CRISPR-knockout of ATRIP compared to non-targeting-control (NTC). Error bars indicate SEM, n=3 independent experiments. P value is calculated with an unpaired two-sided T test. 6C) Clonogenic assay of LINE-1(+) RPE cells (induced with 1 μg/ml doxycycline) with drug inhibition of ATR kinase by 1 μM VE-821 compared to vehicle (DMSO). Error bars indicate SEM, n=3 independent experiments. P value is calculated with an unpaired two-sided T test. 6D) Western blot of RPA2 occupancy on chromatin induced by LINE-1 compared to luciferase control after 72 hours of expression in RPE. Chromatin-bound protein lysates were used. […] Relative signal intensity for n=2 independent experiments ±SEM is quantified. […] Statistical significance is assessed by ANOVA (p=0.0007). […]
Cells were lysed in RIPA buffer with protease/phosphatase inhibitor (cat#5872, Cell Signaling Technology, Danvers, Mass.) or Laemmli Sample Buffer (cat#1610747, Biorad, Hercules, Calif.) by sonication. […] Quantifications were carried out using Image Studio v4.0. […]

FANCD2 = assay: Western blot of FANCD2 monoubiquitination; format: cell-based; details: NTC-treated cells; 24-hour treatment with 1 μg/ml
Source text: FIGS. 5A-5H. The Fanconi Anemia (FA) pathway is essential in p53-deficient cells. 5A) Network plot of 75 DNA repair genes identified in the screen. Edges indicate known physical interactions. This network is enriched for Fanconi anemia genes (blue nodes). 5B) Model of FA complexes responding to a DNA lesion (vertical line) encountered by a replication fork (blue line=genomic DNA; green line=nascent DNA). Genes are color coded based on the performance of their knockouts in the screen. 5C) Western blot of FANCD2 response to 24-hour treatment with 1 μg/ml mitomycin C (MMC). Cells are treated with FA member sgRNAs or non-targeting-control (NTC). FANCD2 monoubiquitination is assessed as the ratio of FANCD2-L (long) to FANCD2-S (short) band intensities (relative L:S ratio). The ratio is graphed relative to NTC, MMC-treated cells. nd=not determined. Uncropped blot is shown in the Source Data. 5D) Clonogenic growth assay of LINE-1(+) RPE cells with sgRNAs targeting the same genes as in (C). n=3 independent experiments. P value calculated with a one-sided T test. […] Quantification to the right of n=2 independent experiments ±SEM. […] Quantification below of n=2 independent experiments ±SEM. Effect of wildtype LINE-1 is statistically significant as assessed by ANOVA (p=0.0143). […] Right, quantification of FANCD2 foci in EdU+HeLa cells. […] 5H) Left, γH2A.X and 53BP1 focus quantification in EdU+TP53^KD cells. […]

LINE-1(+) RPE cells = assay: Clonogenic growth assay, LINE-1(+) cells; format: cell-based
Description: (§1) Viability was determined by clonogenic growth or CellTiter-Glo assay (Promega, Madison, Wis.). WT RPE were assessed by clonogenic growth by transfecting 1e5 cells with 2 μg eGFP (pDA083) or 3 μg LINE-1 (pDA077) plasmid to achieve equimolar ratios. Cells were split to 10 cm growth dishes and selected with G418 24 hours later. In Tet-On assays, 500 cells were plated and doxycycline was added to activate transgene expression. For MMC sensitivity experiments, cells were treated with 100 pM, 1 nM, 10 nM, and 100 nM for 24 hours on day 2 after plating. In VE-821 sensitivity, cells were treated with 1 μM drug or DMSO vehicle throughout the duration of the experiment. For assays in CRISPR knockout cells, knockout cell pools were generated by infecting TP53^KD Tet-On RPE cells with lentivirus encoding either non-targeting control or a gene targeting guide and selecting with puromycin for 1 week. For all assays, after 10-14 days of L1 or control expression, colonies were washed with PBS and fixed (6% gluteraldehyde, 0.5% crystal violet) for 10 minutes. Plates were rinsed in water and air dried, then imaged on a flatbed scanner. Colonies with >50 cells were counted.

TP53KD cells = assay: γH2A.X and 53BP1 nuclear foci quantification in TP53KD cells; format: cell-based; details: data not shown
Description: (§2) We used either Tet-On TP53^KD cells expressing Luciferase or LINE-1 or HeLa cells transfected with doxycycline-inducible LINE-1 plasmids (pDA007, pDA025, pDA027, pDA033, pDA019) and stably-selected with puromycin for 1-2 weeks. Positive controls were treated with either 6 mM hydroxyurea for 4 hours or 200 ng/mL doxorubicin for 2 hours. 100,000 cells were plated on cover slips and treated with 1000 ng/ml doxycycline for 72 hours. EdU was added for 2 hours and cells were pre-treated with 0.5% Triton X-100 for 5 min, fixed with 3.7% paraformaldehyde for 10 minutes, then permeabilized with 0.5% NP-40 for 10 minutes. EdU Click-iT reaction (ThermoFisher) was performed following manufacturer's instructions. Slides were blocked (1% BSA/PBS-Glycine, 30 minutes) and incubated with polyclonal rabbit FANCD2 (1:1000, Novus Biologicals), rabbit 53BP1 (1:500, Novus Biologicals), or mouse γH2A.X (1:1000, Millipore) for 1 hour at room temperature and then anti-rabbit Alexa Fluor 488 for FANCD2 (1:200, ThermoFisher) and anti-rabbit Alexa Fluor 488 (1:2000, ThermoFisher) and anti-mouse Alexa Fluor 555 (1:2000, ThermoFisher) for 53BP1 and γH2A.X, respectively. Slides were imaged at low magnification with the same equipment as described above with key methodological differences. […] Foci were quantified using a previously published method in MATLAB. […]

[1] = test system: Tet-On TP53KD cells expressing LINE-1; assay: qRT-PCR of LINE-1-induced IFN response with nucleoside reverse transcriptase inhibitors; format: cell-based; details: 5 μM for 72 hours
Description: 250,000 Tet-On TP53^KD cells expressing Luciferase or LINE-1 were plated in T25 flasks with 1 ng/mL doxycycline added and treated with 5 μM zalcitabine (ddC) or 5 μM didanosine (ddI) for 72 hours. Cells were lysed and RNA were extracted using Quick-RNA MicroPrep kit (Zymo Research).
cDNA was generated using the iScript kit (Biorad, Hercules, Calif.) following RNA extraction using the Quick-RNA Microprep kit (Zymo). Primers were designed using Primer3 and tested against cDNA to ensure single bands were generated in the PCR. Real-time PCR was performed for 40 cycles (98C×15 seconds, 60C×30 seconds) using SSOAdvanced 2X Master mix (Biorad) on the MyIQ cycler (Biorad). Fold-change expression was determined by the 2^−ΔΔCt method.

PKR = PKR (Homo sapiens, UniProt P19525); details: in vitro, cited from earlier work
HeLa cells = assay: FANCD2 nuclear foci quantification in EdU-labeled HeLa cells; format: cell-based; details: S phase (EdU+) cells; p=1.7×10^−8
Description: as §2

ORF2p = assay: Western blot of ORF2p accumulation in RPE cells with doxycycline-controlled LINE-1 expression construct; format: cell-based, human
Source text: (§3) FIGS. 13A and 13B. […] (Day 1 and 3 show little effect. The effect is sustained at day 10. Higher doses of the drug are toxic). The cells used are RPE cells that have a doxycycline (Dox) controlled LINE-1 expression construct. (13A.) Western blot showing ORF2p, ORF1p, and tubulin levels on day 5. Addition of Dox induces LINE-1 expression. Addition of PKRi enhances relative ORF2p expression levels. (13B.) Quantification of ORF2p expression (relative to tubulin) by Western blot as a function PKRi inhibitor dose on different days of the experiment.
Cells were lysed in RIPA buffer with protease/phosphatase inhibitor (cat#5872, Cell Signaling Technology, Danvers, Mass.) or Laemmli Sample Buffer (cat#1610747, Biorad, Hercules, Calif.) by sonication. PAGE was carried out with manufacturer-recommended buffers on 4-20% or 7.5% Mini TGX Gels (Biorad), NuPAGE 4-12% BisTris gels, or NuPAGE 3-8% Tris-Acetate gels (Thermo). Semi-dry transfers were carried out for Biorad gels or NuPAGE BisTris gels at 2.5 A for 5-15 minutes using the Trans-Blot-Turbo (Biorad). Wet transfers were carried out for Tris-Acetate gels at 30V overnight. All blocking was performed with Odyssey Blocking Buffer (Licor). Primary antibodies were incubated with membranes overnight at 4C, then infrared-conjugated secondaries (Licor) were added 1:10,000 and imaged on a Licor Odyssey Scanner. Quantifications were carried out using Image Studio v4.0. Blots were stripped with Reblot Plus Strong Solution (Millipore Sigma).
(§4) (Day 1 and 3 show little effect. The effect is sustained at day 10. Higher doses of the drug are toxic.) The finding is significant as proof-of-principle that specific cellular pathways are involved in uncoupling the expression of LINE-1 encoded proteins. As such increasing ORF2p intracellularly in tumors can cause tumor cell death.

RPE cells = format: cell-based
Source text: as §3, §4

luciferase(+) cells = assay: Clonogenic growth assay, luciferase(+) control cells; format: cell-based
Description: as §1

PKR, sequence (P19525 whole entry): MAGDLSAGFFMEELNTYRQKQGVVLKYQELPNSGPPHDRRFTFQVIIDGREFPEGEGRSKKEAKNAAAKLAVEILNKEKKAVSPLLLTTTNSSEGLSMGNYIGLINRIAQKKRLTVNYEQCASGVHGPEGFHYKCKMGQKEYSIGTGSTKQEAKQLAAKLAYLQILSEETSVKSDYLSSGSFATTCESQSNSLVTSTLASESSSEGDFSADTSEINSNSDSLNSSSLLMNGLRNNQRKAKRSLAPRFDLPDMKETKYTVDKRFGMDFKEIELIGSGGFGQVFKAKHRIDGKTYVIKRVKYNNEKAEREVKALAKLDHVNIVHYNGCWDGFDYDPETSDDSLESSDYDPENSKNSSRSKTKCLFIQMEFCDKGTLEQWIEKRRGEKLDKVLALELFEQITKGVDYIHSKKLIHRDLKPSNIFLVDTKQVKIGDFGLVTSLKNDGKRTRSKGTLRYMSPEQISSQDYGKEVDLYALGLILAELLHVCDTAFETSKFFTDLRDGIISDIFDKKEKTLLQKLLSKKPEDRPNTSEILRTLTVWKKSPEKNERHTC

Molecule: CO[C@@]12[C@H](COC(N)=O)C3=C(C(=O)C(C)=C(N)C3=O)N1C[C@@H]1N[C@@H]12 [MMC, mitomycin C]
- chromatin-bound RPA2 (RPA2): induced chromatin-bound RPA2
- FANCD2 monoubiquitination (FANCD2-Ub) (FANCD2): induced FANCD2-Ub
- sensitivity of LINE-1(+) cells compared to luciferase-expressing controls (LINE-1(+) RPE cells; dose-response clonogenic assay, 24 hours treatment): 1.9 fold

Molecule: COc1cccc2c1C(=O)c1c(O)c3c(c(O)c1C2=O)C[C@@](O)(C(=O)CO)C[C@@H]3O[C@H]1C[C@H](N)[C@H](O)[C@H](C)O1 [doxorubicin]
- DNA damage foci (γH2A.X and 53BP1) over the cell cycle (TP53KD cells): continue to accumulate

Molecule: Nc1ccn([C@H]2CC[C@@H](CO)O2)c(=O)n1 [zalcitabine]
- effect on LINE-1-induced IFN response [1]: attenuated the IFN response

Molecule: Nc1ncc2[nH]cnc2n1 [2-AP, 2-aminopurine]
- potency relative to C16 (PKR; competes for ATP at the ATP binding site of PKR): less potent than C16

Molecule: NC(=O)NO [hydroxyurea]
- number of FANCD2 foci (HeLa cells): increased the number of FANCD2 foci

Molecule: O=c1[nH]cnc2c1ncn2[C@H]1CC[C@@H](CO)O1 [didanosine]
- effect on LINE-1-induced IFN response [1]: attenuated the IFN response

Molecule: O=C1Nc2ccc3ncsc3c2C1=Cc1cnc[nH]1 [PKRi, 6,8-dihydro-8-(1H-imidazol-5-ylmethylene)-7H-pyrrolo[2,3-g]benzothiazol-7-one]
- IC50 (PKR): ~0.2 µM
- accumulation of ORF2p (relative to ORF1p and tubulin) (ORF2p; 0.1 uM, by day 6 of treatment): increases the accumulation of ORF2p
- effect on ORF2p accumulation (ORF2p; Day 1 and 3): little effect
- accumulation of ORF2p (relative to ORF1p and tubulin) (ORF2p; by day 5 of treatment, Dox-induced RPE cells): dose-dependent increases the accumulation of ORF2p
- effect on ORF2p accumulation (ORF2p; day 10): sustained
- toxicity (RPE cells): toxic

Molecule: pladienolide B [PLA-B]
- increased sensitivity of LINE-1(+) vs luciferase(+) cells (LINE-1(+) RPE cells; P=0.044): 4.1 fold
- fewer colonies of LINE-1(+) cells (LINE-1(+) RPE cells; same PLA-B dose as for luciferase(+) cells): 27.8%
- reduction of luciferase(+) clonogenic growth (luciferase(+) cells; same PLA-B dose as for LINE-1(+) cells): 6.8%

Molecule: CS(=O)(=O)c1ccc(-c2cnc(N)c(C(=O)Nc3ccccc3)n2)cc1 [VE-821]
- sensitization of cells to LINE-1 (ATR inhibition) (LINE-1(+) RPE cells; 1 μM vs DMSO vehicle): sensitized cells to LINE-1
- effect on viability in luciferase(+) cells (luciferase(+) cells; same dose as in LINE-1(+) cells, data not shown): no effect on viability
